Results: patent US20060069132A1, “Azolecarboxamide herbicides” (priority 2004, published 2006)

How the values were obtained:
pigweed = assay: Test B pre-/postemergence herbicide test; assay type: in vivo, Amaranthus retroflexus
Summary of the method: (§1)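 Pre: seeds sown, then sprayed. Post: 1–4-leaf plants (2–18 cm) sprayed at the same time. Paddy: flooded, treated at 2-leaf stage. Formulation: non-phytotoxic solvent with surfactant. Greenhouse 13–15 days; visual 0–100 score relative to controls.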

wild oat = assay: Test B postemergence herbicide test; assay type: in vivo, Avena fatua
Summary of the method: (§2)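 Treated at 2-leaf (paddy) or 1–4-leaf, 2–18 cm (postemergence); greenhouse 13–15 d; visual score vs control, 0 none to 100 complete control; dash = not tested.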

large crabgrass = assay: Test B pre-/postemergence herbicide test; assay type: in vivo, Digitaria sanguinalis
Summary of the method: as §1

corn = assay: Test B pre-/postemergence herbicide test; assay type: in vivo, Zea mays
Summary of the method: as §1

velvetleaf = assay: Test B pre-/postemergence herbicide test; assay type: in vivo, Abutilon theophrasti
Summary of the method: as §1

Surinam grass = assay: Test B pre-/postemergence herbicide test; assay type: in vivo, Urochloa decumbens
Summary of the method: as §1

rice = assay: Test B flooded paddy test; assay type: in vivo, Oryza sativa; conditions: 1000 g ai/ha, scale 0 to 100 (0 no effect, 100 complete control)
Summary of the method: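 Plants grow to 1- to 4-leaf stage (2–18 cm) for postemergence spraying, or to 2-leaf stage for the paddy test. Formulated compound is applied. Greenhouse holding lasts 13–15 days. Response is scored visually relative to controls, 0 no effect to 100 complete control; a dash means no result.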

giant foxtail = assay: Test B pre-/postemergence herbicide test; assay type: in vivo, Setaria faberi
Summary of the method: as §1

barnyardgrass [1] = assay: Test B flooded paddy test; assay type: in vivo, Echinochloa crus-galli; conditions: 1000 g ai/ha, scale 0 to 100 (0 no effect, 100 complete control)
Summary of the method: (§3)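 Formulated test chemicals went onto postemergence plants measuring 2 to 18 cm, at one to four leaves. For the paddy assay, species had reached two leaves. Scoring took place 13–15 days later by eye, relative to untreated plants, using 0 for no effect up to 100 for full control.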

lambsquarters = assay: Test B pre-/postemergence herbicide test; assay type: in vivo, Chenopodium album
Summary of the method: as §1

cocklebur = assay: Test B pre-/postemergence herbicide test; assay type: in vivo, Xanthium strumarium
Summary of the method: (§4)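 Plants compared with untreated controls 13–15 days post-treatment and given a visual 0–100 injury score. Applications: preemergence to seeds; postemergence at 1- to 4-leaf (2–18 cm); paddy species flooded, 2-leaf stage. Vehicle non-phytotoxic, surfactant included.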

wheat = assay: Test B postemergence herbicide test; assay type: in vivo, Triticum aestivum; set-up: key to Wheat plant response rating: 0 = no effect, 100 = complete control
Summary of the method: as §2

ducksalad = assay: Test B flooded paddy test; assay type: in vivo, Heteranthera limosa; conditions: 1000 g ai/ha, scale 0 to 100 (0 no effect, 100 complete control)
Summary of the method: as §3

barnyardgrass [2] = assay: Test B pre-/postemergence herbicide test; assay type: in vivo, Echinochloa crus-galli
Summary of the method: as §4

morningglory = assay: Test B pre-/postemergence herbicide test; assay type: in vivo, Ipomoea coccinea
Summary of the method: as §4

[3] = 500 g ai/ha, visual rating 0-100, 0 no effect, 100 complete control, preemergence
[4] = postemergence, 125 g ai/ha, visual rating, scale 0 (no effect) to 100 (complete control)
[5] = postemergence, 500 g ai/ha, visual rating, scale 0 (no effect) to 100 (complete control)
[6] = preemergence, 125 g ai/ha, 0 to 100 scale, 0 is no effect, 100 is complete control
[7] = 125 g ai/ha, 0 is no effect, 100 is complete control, preemergence
[8] = Postemergence, 500 g ai/ha, scale 0 (no effect) to 100 (complete control)
[9] = postemergence, 125 g ai/ha, scale 0 to 100
[10] = 125 g ai/ha, 0 = no effect, 100 = complete control, preemergence
[11] = 500 g ai/ha, visual rating, 0 = no effect, 100 = complete control, preemergence
[12] = postemergence, 500 g ai/ha, scale 0 to 100, 0 is no effect, 100 is complete control

CCn1nc(C(C)(C)C)cc1C(=O)Nc1cc(C(=O)NCC2CC2)ccn1 [Compound 155]
Plant response rating, Pigweed (pigweed; [3]): 100 | Pigweed plant response rating (pigweed; [4]): 60 | Pigweed plant response rating (pigweed; [5]): 100 | Plant response rating, Pigweed (pigweed; [6]): 100 | Oat, Wild plant response rating (wild oat; [4]): 40 | Oat, Wild plant response rating (wild oat; [5]): 50 | Plant response rating, Crabgrass, Large (large crabgrass; [3]): 100 | Crabgrass, Large plant response rating (large crabgrass; [4]): 20 | Crabgrass, Large plant response rating (large crabgrass; [5]): 40 | Plant response rating, Crabgrass, Large (large crabgrass; [6]): 60 | Plant response rating, Corn (corn; [3]): 30 | Corn plant response rating (corn; [4]): 10 | Corn plant response rating (corn; [5]): 20 | Plant response rating, Corn (corn; [6]): 0 | Plant response rating, Velvetleaf (velvetleaf; [3]): 70 | Velvetleaf plant response rating (velvetleaf; [4]): 20 | Velvetleaf plant response rating (velvetleaf; [5]): 70 | Plant response rating, Velvetleaf (velvetleaf; [6]): 20 | Plant response rating, Surinam Grass (Surinam grass; [3]): 50 | Surinam Grass plant response rating (Surinam grass; [4]): 20 | Surinam Grass plant response rating (Surinam grass; [5]): 30 | Plant response rating, Surinam Grass (Surinam grass; [6]): 10 | Rice plant response rating (rice; visual rating, 13 to 15 days): 20 | Plant response rating, Foxtail, Giant (giant foxtail; [3]): 90 | Foxtail, Giant plant response rating (giant foxtail; [4]): 20 | Foxtail, Giant plant response rating (giant foxtail; [5]): 30 | Plant response rating, Foxtail, Giant (giant foxtail; [6]): 20 | Barnyardgrass plant response rating (barnyardgrass [1]; visual rating, 13 to 15 days): 70 | Plant response rating, Lambsquarters (lambsquarters; [3]): 100 | Lambsquarters plant response rating (lambsquarters; [4]): 70 | Lambsquarters plant response rating (lambsquarters; [5]): 90 | Plant response rating, Lambsquarters (lambsquarters; [6]): 100 | Plant response rating, Cocklebur (cocklebur; [3]): 30 | Cocklebur plant response rating (cocklebur; [4]): 60 | Cocklebur plant response rating (cocklebur; [5]): 80 | Plant response rating, Cocklebur (cocklebur; [6]): 0 | Wheat plant response rating (wheat; [5]): 20 | Ducksalad plant response rating (ducksalad; visual rating, 13 to 15 days): 100 | Plant response rating, Barnyardgrass (barnyardgrass [2]; [3]): 90 | Barnyardgrass plant response rating (barnyardgrass [2]; [4]): 10 | Barnyardgrass plant response rating (barnyardgrass [2]; [5]): 20 | Plant response rating, Barnyardgrass (barnyardgrass [2]; [6]): 60 | Plant response rating, Morningglory (morningglory; [3]): 40 | Morningglory plant response rating (morningglory; [4]): 30 | Morningglory plant response rating (morningglory; [5]): 60 | Plant response rating, Morningglory (morningglory; [6]): 20

CCN(C(C)=O)C(=O)c1ccc(F)c(NC(=O)c2cc(C(C)(C)C)nn2CC)c1 [Compound 413]
Plant response rating (0 to 100 scale), Pigweed (pigweed; [7]): 20 | Pigweed plant response rating (pigweed; [8]): 70 | Pigweed plant response rating (pigweed; [9]): 50 | Oat, Wild plant response rating (wild oat; [8]): 10 | Oat, Wild plant response rating (wild oat; [9]): 0 | Plant response rating (0 to 100 scale), Crabgrass, Large (large crabgrass; [7]): 20 | Crabgrass, Large plant response rating (large crabgrass; [8]): 20 | Crabgrass, Large plant response rating (large crabgrass; [9]): 10 | Plant response rating (0 to 100 scale), Corn (corn; [7]): 0 | Corn plant response rating (corn; [8]): 20 | Corn plant response rating (corn; [9]): 10 | Plant response rating (0 to 100 scale), Velvetleaf (velvetleaf; [7]): 0 | Velvetleaf plant response rating (velvetleaf; [8]): 50 | Velvetleaf plant response rating (velvetleaf; [9]): 30 | Plant response rating (0 to 100 scale), Surinam Grass (Surinam grass; [7]): 10 | Surinam Grass plant response rating (Surinam grass; [8]): 20 | Surinam Grass plant response rating (Surinam grass; [9]): 20 | Rice plant response rating (rice): 60 | Plant response rating (0 to 100 scale), Foxtail, Giant (giant foxtail; [7]): 10 | Foxtail, Giant plant response rating (giant foxtail; [8]): 20 | Foxtail, Giant plant response rating (giant foxtail; [9]): 20 | Barnyardgrass plant response rating (barnyardgrass [1]): 60 | Lambsquarters plant response rating (lambsquarters; [8]): 90 | Lambsquarters plant response rating (lambsquarters; [9]): 70 | Cocklebur plant response rating (cocklebur; [8]): 90 | Cocklebur plant response rating (cocklebur; [9]): 30 | Wheat plant response rating (wheat; 500 g ai/ha, scale 0 to 100, 0 no effect, 100 complete control, preemergence): 80 | Wheat plant response rating (wheat; [8]): 10 | Wheat plant response rating (wheat; [9]): 0 | Ducksalad plant response rating (ducksalad): 80 | Plant response rating (0 to 100 scale), Barnyardgrass (barnyardgrass [2]; [7]): 40 | Barnyardgrass plant response rating (barnyardgrass [2]; Postemergence, 125 g ai/ha, scale 0 (no effect) to 100 (complete control)): 10 | Barnyardgrass plant response rating (barnyardgrass [2]; [8]): 20 | Plant response rating (0 to 100 scale), Morningglory (morningglory; [7]): 0 | Morningglory plant response rating (morningglory; [8]): 70 | Morningglory plant response rating (morningglory; [9]): 30

CCn1nc(C(C)(C)C)cc1C(=O)Nc1nc(C(=O)N2CC=CC2)ccc1F [Compound 281]
Pigweed plant response rating (0 to 100 scale) (pigweed; [10]): 100 | Plant response rating, Pigweed (pigweed; [11]): 100 | Pigweed plant response rating (pigweed; [4]): 20 | Pigweed plant response rating (pigweed; [12]): 30 | Oat, Wild plant response rating (wild oat; [4]): 10 | Oat, Wild plant response rating (wild oat; [12]): 20 | Crabgrass, Large plant response rating (0 to 100 scale) (large crabgrass; [10]): 10 | Plant response rating, Crabgrass, Large (large crabgrass; [11]): 70 | Crabgrass, Large plant response rating (large crabgrass; [4]): 10 | Crabgrass, Large plant response rating (large crabgrass; [12]): 10 | Corn plant response rating (0 to 100 scale) (corn; [10]): 0 | Plant response rating, Corn (corn; [11]): 0 | Corn plant response rating (corn; [4]): 0 | Corn plant response rating (corn; [12]): 10 | Velvetleaf plant response rating (0 to 100 scale) (velvetleaf; [10]): 10 | Plant response rating, Velvetleaf (velvetleaf; [11]): 70 | Velvetleaf plant response rating (velvetleaf; [4]): 0 | Velvetleaf plant response rating (velvetleaf; [12]): 20 | Surinam Grass plant response rating (0 to 100 scale) (Surinam grass; [10]): 10 | Plant response rating, Surinam Grass (Surinam grass; [11]): 40 | Surinam Grass plant response rating (Surinam grass; [4]): 10 | Surinam Grass plant response rating (Surinam grass; [12]): 20 | Rice plant response rating (rice): 70 | Foxtail, Giant plant response rating (0 to 100 scale) (giant foxtail; [10]): 10 | Plant response rating, Foxtail, Giant (giant foxtail; [11]): 60 | Foxtail, Giant plant response rating (giant foxtail; [4]): 10 | Foxtail, Giant plant response rating (giant foxtail; [12]): 10 | Barnyardgrass plant response rating (barnyardgrass [1]): 70 | Lambsquarters plant response rating (0 to 100 scale) (lambsquarters; [10]): 90 | Plant response rating, Lambsquarters (lambsquarters; [11]): 100 | Lambsquarters plant response rating (lambsquarters; [4]): 20 | Lambsquarters plant response rating (lambsquarters; [12]): 30 | Cocklebur plant response rating (0 to 100 scale) (cocklebur; [10]): 0 | Plant response rating, Cocklebur (cocklebur; [11]): 0 | Cocklebur plant response rating (cocklebur; [4]): 20 | Cocklebur plant response rating (cocklebur; [12]): 20 | Wheat plant response rating (wheat; [4]): 30 | Wheat plant response rating (wheat; [12]): 30 | Ducksalad plant response rating (ducksalad): 80 | Barnyardgrass plant response rating (0 to 100 scale) (barnyardgrass [2]; [10]): 20 | Plant response rating, Barnyardgrass (barnyardgrass [2]; [11]): 90 | Barnyardgrass plant response rating (barnyardgrass [2]; [4]): 0 | Barnyardgrass plant response rating (barnyardgrass [2]; [12]): 0 | Morningglory plant response rating (0 to 100 scale) (morningglory; [10]): 0 | Plant response rating, Morningglory (morningglory; [11]): 20 | Morningglory plant response rating (morningglory; [4]): 0 | Morningglory plant response rating (morningglory; [12]): 10
